Laboratory results published in ChEMBL document CHEMBL1914411, “Synthesis of lipophilic dimeric C-7/C-7-linked ciprofloxacin and C-6/C-6-linked levofloxacin derivatives. Versatile in vitro biological evaluations of monomeric and dimeric fluoroquinolone derivatives as potential antitumor, antibacterial or antimycobacterial agents” (Eur J Med Chem, 2011).
Values after ≈ are worked out from the molar mass of the structure shown. Active and inactive are the calls of the source.

Legend:
[1] = tested on: Mycobacterium tuberculosis; test: Antimycobacterial activity against Mycobacterium tuberculosis H37Rv assessed as growth inhibition at 10 uM after 6 days by MTT colorimetric microassay; assay type: functional; settings: for inhibition of growth at 10 µM: 144 h, read-out: GI
[2] = tested on: Escherichia coli; test: Antimicrobial activity against Escherichia coli CIP 53126 after 18 to 24 hrs by broth microdilution method; assay type: functional
[3] = tested on: Pseudomonas aeruginosa; test: Antimicrobial activity against Pseudomonas aeruginosa CIP 82.118 after 18 to 24 hrs by broth microdilution method; assay type: functional
[4] = tested on: Staphylococcus aureus; test: Antimicrobial activity against Staphylococcus aureus CIP 4.83 after 18 to 24 hrs by broth microdilution method; assay type: functional
[5] = tested on: Mycobacterium tuberculosis; test: Antimycobacterial activity against Mycobacterium tuberculosis H37Rv assessed as growth inhibition at 0.1 uM after 6 days by MTT colorimetric microassay; assay type: functional, organism-based
[6] = tested on: Enterococcus hirae; test: Antimicrobial activity against Enterococcus hirae CIP 5855 after 18 to 24 hrs by broth microdilution method; assay type: functional
[7] = tested on: Mycobacterium tuberculosis; test: Antimycobacterial activity against Mycobacterium tuberculosis H37Rv after 6 days by MTT colorimetric microassay; assay type: functional, organism-based; settings: 144 h
[8] = tested on: Mycobacterium tuberculosis; test: Antimycobacterial activity against Mycobacterium tuberculosis H37Rv assessed as growth inhibition at 1 uM after 6 days by MTT colorimetric microassay; assay type: functional
[9] = tested on: Staphylococcus aureus; test: Antimicrobial activity against methicillin-resistant Staphylococcus aureus ATCC 33592 after 18 to 24 hrs by broth microdilution method; assay type: functional
[10] = tested on: Staphylococcus aureus; test: Antimicrobial activity against multidrug-resistant Staphylococcus aureus isolate 1 after 18 to 24 hrs by broth microdilution method; assay type: functional
[11] = tested on: Staphylococcus aureus; test: Antimicrobial activity against multidrug-resistant Staphylococcus aureus isolate 2 after 18 to 24 hrs by broth microdilution method; assay type: functional
[12] = tested on: Staphylococcus aureus; test: Antimicrobial activity against methicillin-resistant Staphylococcus aureus ATCC 33591 after 18 to 24 hrs by broth microdilution method; assay type: functional

| SMILES | MBC [2] [µM] | MIC [2] [µM] | MBC [3] [µM] | MIC [3] [µM] | MBC [4] [µM] | MIC [4] [µM] | growth inhibition (GI) [5] | MBC [6] [µM] | MIC [6] [µM] | inhibition of growth at 10 µM [1] [%] | further results |
| --- | --- | --- | --- | --- | --- | --- | --- | --- | --- | --- | --- |
| O=C(O)c1cn(C2CC2)c2cc(N3CCN(C(=O)CCCCCCCCC(=O)N4CCN(c5cc6c(cc5F)c(=O)c(C(=O)O)cn6C5CC5)CC4)CC3)c(F)cc2c1=O | 250 (≈ 207 µg/mL) | 250 (≈ 207 µg/mL) | 125 (≈ 104 µg/mL) | 62.5 (≈ 51.8 µg/mL) | 250 (≈ 207 µg/mL) | 250 (≈ 207 µg/mL) | inactive | 250 (≈ 207 µg/mL) | 250 (≈ 207 µg/mL) | – | growth inhibition (GI) [1]: inactive |
| C[C@H]1COc2c(N3CCN(C)CC3)c(F)cc3c(=O)c(C(=O)NCCCCCCNC(=O)c4cn5c6c(c(N7CCN(C)CC7)c(F)cc6c4=O)OC[C@@H]5C)cn1c23 | 62.5 (≈ 50.2 µg/mL) | 62.5 (≈ 50.2 µg/mL) | 250 (≈ 201 µg/mL) | 62.5 (≈ 50.2 µg/mL) | 500 (≈ 401 µg/mL) | 125 (≈ 100 µg/mL) | inactive | 125 (≈ 100 µg/mL) | 125 (≈ 100 µg/mL) | 60 | MIC [7]: > 10 µM |
| C[C@H]1COc2c(N3CCN(C)CC3)c(F)cc3c(=O)c(C(=O)NCCCCCNC(=O)c4cn5c6c(c(N7CCN(C)CC7)c(F)cc6c4=O)OC[C@@H]5C)cn1c23 | 62.5 (≈ 49.3 µg/mL) | 62.5 (≈ 49.3 µg/mL) | 250 (≈ 197 µg/mL) | 62.5 (≈ 49.3 µg/mL) | 500 (≈ 394 µg/mL) | 125 (≈ 98.6 µg/mL) | inactive | 250 (≈ 197 µg/mL) | 125 (≈ 98.6 µg/mL) | 60 | – |
| CCCCCCCCCCCCCC(=O)OCC(=O)N1CCN(c2cc3c(cc2F)c(=O)c(C(=O)O)cn3C2CC2)CC1 | 500 (≈ 300 µg/mL) | 125 (≈ 75 µg/mL) | 250 (≈ 150 µg/mL) | 125 (≈ 75 µg/mL) | 7.8 (≈ 4.68 µg/mL) | 7.8 (≈ 4.68 µg/mL) | inactive | 31.2 (≈ 18.7 µg/mL) | 31.2 (≈ 18.7 µg/mL) | > 95 | – |
| CCCCCCCCCCCCCCCC(=O)OCOC(=O)c1cn2c3c(c(N4CCN(C)CC4)c(F)cc3c1=O)OC[C@@H]2C | – | – | – | – | – | – | inactive | – | – | – | growth inhibition (GI) [8]: inactive |
| CCCCCCCCCCCCCC(=O)OCOC(=O)c1cn2c3c(c(N4CCN(C)CC4)c(F)cc3c1=O)OC[C@@H]2C | 15.6 (≈ 9.39 µg/mL) | 15.6 (≈ 9.39 µg/mL) | 250 (≈ 150 µg/mL) | 62.5 (≈ 37.6 µg/mL) | 3.9 (≈ 2.35 µg/mL) | 7.8 (≈ 4.69 µg/mL) | inactive | 15.6 (≈ 9.39 µg/mL) | 15.6 (≈ 9.39 µg/mL) | > 95 | IC50 [7]: 1.3 µM; MIC [7]: 2.5 µM (≈ 1.5 µg/mL) |
| O=C(O)c1cn(C2CC2)c2cc(N3CCNCC3)c(F)cc2c1=O [CIPROFLOXACIN] | ≤ 0.97 | ≤ 0.97 | ≤ 0.97 | ≤ 0.97 | ≤ 0.97 | ≤ 0.97 | inactive | 1.9 (≈ 0.63 µg/mL) | ≤ 0.97 | – | MBC [9]: 0.97 µM (≈ 0.321 µg/mL); MIC [9]: 0.48 µM (≈ 0.159 µg/mL); IC50 [7]: 1.6 µM; MIC [7]: 2.5 µM (≈ 0.828 µg/mL); MBC [10]: 62.5 µM (≈ 20.7 µg/mL); MIC [10]: 31.2 µM (≈ 10.3 µg/mL); MBC [11]: 31.2 µM (≈ 10.3 µg/mL); MIC [11]: 31.2 µM (≈ 10.3 µg/mL); MBC [12]: 1.9 µM (≈ 0.63 µg/mL); MIC [12]: 0.97 µM (≈ 0.321 µg/mL) |
| CCCCCCCCC(=O)OCC(=O)N1CCN(c2cc3c(cc2F)c(=O)c(C(=O)O)cn3C2CC2)CC1 | 500 (≈ 265 µg/mL) | 62.5 (≈ 33.1 µg/mL) | 250 (≈ 132 µg/mL) | 31.2 (≈ 16.5 µg/mL) | ≤ 0.12 | ≤ 0.12 | inactive | ≤ 0.97 | ≤ 0.97 | > 95 | MBC [9]: 0.02 µM (≈ 0.0106 µg/mL); MIC [9]: 0.02 µM (≈ 0.0106 µg/mL); MBC [10]: 15.6 µM (≈ 8.26 µg/mL); MIC [10]: 7.8 µM (≈ 4.13 µg/mL); MBC [11]: 15.6 µM (≈ 8.26 µg/mL); MIC [11]: 7.8 µM (≈ 4.13 µg/mL); MBC [12]: 0.24 µM (≈ 0.127 µg/mL); MIC [12]: 0.03 µM (≈ 0.0159 µg/mL) |
| CCCCCCCCCCC(=O)OCC(=O)N1CCN(c2cc3c(cc2F)c(=O)c(C(=O)O)cn3C2CC2)CC1 | 250 (≈ 139 µg/mL) | 62.5 (≈ 34.9 µg/mL) | 250 (≈ 139 µg/mL) | 62.5 (≈ 34.9 µg/mL) | ≤ 0.97 | ≤ 0.97 | inactive | 1.9 (≈ 1.06 µg/mL) | ≤ 0.97 | > 95 | MBC [9]: 0.03 µM (≈ 0.0167 µg/mL); MBC [10]: 500 µM (≈ 279 µg/mL); MIC [10]: 15.6 µM (≈ 8.7 µg/mL); MBC [11]: 15.6 µM (≈ 8.7 µg/mL); MIC [11]: 7.8 µM (≈ 4.35 µg/mL); MBC [12]: 1.9 µM (≈ 1.06 µg/mL); MIC [12]: 0.97 µM (≈ 0.541 µg/mL) |
| CCCCCCCCCCCCCCNC(=O)c1cn2c3c(c(N4CCN(C)CC4)c(F)cc3c1=O)OC[C@@H]2C | 250 (≈ 139 µg/mL) | 125 (≈ 69.6 µg/mL) | 250 (≈ 139 µg/mL) | 62.5 (≈ 34.8 µg/mL) | 31.2 (≈ 17.4 µg/mL) | 7.8 (≈ 4.34 µg/mL) | inactive | 3.9 (≈ 2.17 µg/mL) | 3.9 (≈ 2.17 µg/mL) | > 95 | – |
| O=C(CCCCCCCCCCCCCCCCC(=O)OCN1CCN(c2cc3c(cc2F)c(=O)c(C(=O)O)cn3C2CC2)CC1)OCN1CCN(c2cc3c(cc2F)c(=O)c(C(=O)O)cn3C2CC2)CC1 | 31.2 (≈ 31.2 µg/mL) | 15.6 (≈ 15.6 µg/mL) | 250 (≈ 250 µg/mL) | 62.5 (≈ 62.6 µg/mL) | 15.6 (≈ 15.6 µg/mL) | 7.8 (≈ 7.81 µg/mL) | inactive | 125 (≈ 125 µg/mL) | 62.5 (≈ 62.6 µg/mL) | – | growth inhibition (GI) [1]: inactive |
